The results in this text go back to patent publication US20060229242A1, “Composition comprising a pulmonary surfactant and a pde2 inhibitor” (Altana Phazma AG, priority 2003, published 2006).

The assay concerns Male Wistar rats. Put plainly: Rat lung lavage experiment: arterial blood oxygenation after repeated saline lung lavage. Format: in vivo. The note with it: rat lung lavage model; intratracheal, 1.2 mL, 60 min after lavage; PODPO 100 nM alone, or VENTICUTE 12.5 mgPL/kg with PODPO 100 nM (p<0.05 to p<0.001 versus VENTICUTE alone); up to 150 min. How it is done:
(§1) Male Wistar rats were prepared according to Example 5 and lungs were ravaged 5-9 times with NaCl 0.9% (=>PaO2˜50-100 mmHg). After 60 min NaCl 0.9% (open circles), VENTICUTE 12.5 mgPL/kg (filled squares, PL=Phospholipids), PODPO (9-(6-Phenyl-2-oxohex-3-yl)-2-(3,4-dimethoxybenzyl)-purin-6-one) 100 nM (stars), or VENTICUTE 12.5 mgPL/kg in combination with PODPO 100 nM (open squares) was administered intratracheally (administration volume 1.2 mL). Arterial blood oxygenation (PaO2) was determined every 30 min up to 150 min after drug administration (t=210 min). […] Data are shown as mean±SEM. * p<0.05, *** p<0.001 versus VENTICUTE 12.5 mgPL/kg.
as §1, with “rats (220-250 g)” for “rats”, “anaesthetized, catheterised” for “prepared according”, “withdraw arterial blood,” for “Example 5”, “and ventilated with pure oxygen (=>PaO2˜500-550 mmHg). 30 min later” for “and”, “lavaged” for “ravaged”

As for `COc1ccc(Cc2nc3c(ncn3C(CCCc3ccccc3)C(C)=O)c(=O)[nH]2)cc1OC` (stereo not shown) [PODPO, 9-(6-Phenyl-2-oxohex-3-yl)-2-(3,4-dimethoxybenzyl)-purin-6-one], the “Influence on arterial blood oxygenation (PaO2), in words” value was “no influence on oxygenation”.
